The source of these data is US20230077704A1, “APPLICATION OF NITAZOXANIDE AND ACTIVE FORM THEREOF, TIZOXANIDE, IN TREATMENT OF SARS-COV-2 INFECTION” (priority 2020, published 2023).

Entries after “also recorded” stand apart in the source; their conditions may differ. Like-named read-outs stand apart in the source and are kept apart here.

Data set [1] has as its system rotavirus. Conditions: clinical trials; cited from earlier work.
Data set [2] relates to SARS-CoV-2 (2019-nCoV) virus. The data set is classed as cell-based. The conditions noted are these: for Copy number of virus genome: 100TCID50, 48 hours, supernatant.
Data set [3] has as its system Vero-E6 cells. The data set is described as follows: Cytotoxicity test of drugs, CCK-8 kit. It counts as cell-based. Conditions: 48 hours; for Cell viability (% of vehicle control): Vero-E6 cells. The protocol:
The cytotoxicity test of drugs was carried out by using CCK-8 kit (Beyotime). Specific steps were as follows:
(1) 1×10^4 Vero-E6 cells (ATCC) were inoculated in a 96-well plate and cultured at 37° C. for 8 hours.
(2) The drug was diluted with DMSO to an appropriate concentration of mother solution, and then diluted with MEM (purchased from Gibco company, Catalog No. 10370021) medium containing 2% FBS (purchased from Gibco company, Catalog No. 16000044) to the same concentration as that for the drug treatment. The original medium in the 96-well plate was discarded, 100 μL of the drug-containing MEM medium was taken and added to the cells, and three replicate wells were set for each concentration. A vehicle control (adding DMSO and medium to cells in wells, without adding drug) and a blank control (adding DMSO and medium to the wells, without cells) were set up. After the drug was added, the cells were cultured at 37° C. for 48 hours.
(3) 20 μL of CCK-8 solution (Beyotime) was added to the well to be tested, mixed gently without generating bubbles, and cultured subsequently at 37° C. for 2 hours. OD450 was read on a microplate reader (purchased from Molecular Devices, model: SpectraMax M5), and the cell viability was calculated:
Cell viability (%)=(A(drug treatment group)−A(blank control))/(A(vehicle control)−A(blank control))×100%
Wherein, A was the reading of the microplate reader.

The test system of data set [4] is influenza. The conditions noted are these: 600 mg twice daily for five days, adults and adolescents; cited from earlier work.

On to `CC(=O)Oc1ccccc1C(=O)Nc1ncc([N+](=O)[O-])s1` [nitazoxanide, 2-(acetyloxy)-N-(5-nitro-2-thiazolyl) benzamide], for which the “Treatment of diarrhea in children caused by rotavirus infection” value in data set [1] was “can effectively treat diarrhea”. Further, the “Copy number of virus genome” value in data set [2] (0.14 μM, Vero E6 cells) is 820470664.5; in data set [2] (0.41 μM, Vero E6 cells), 363337006; in data set [2] (1.23 μM, Vero E6 cells) it was 76022948.5; in data set [2] (3.70 μM, Vero E6 cells), 21027512.5; in data set [2] (11.11 μM, Vero E6 cells), 5389366.5; in data set [2] (33.33 μM, Vero E6 cells), 1424671.5. Further, the “Copy number of virus genome” value in data set [2] (100 μM, Vero E6 cells) turned out to be 1220444.5. Further, in data set [2] (Vero E6 cells, 48 hours after infection by SARS-CoV-2, FIG. 1(a)), the “Viral RNA load in the cells” value is reported as “can reduce the viral RNA load”. Moreover, the “Inhibition of replication of SARS-CoV-2 virus genome in the infected supernatant” value in data set [2] (at concentrations of 100 μM, 33 μM, 11.1 μM and 3.7 μM) is listed as “could effectively inhibit the replication”. For the same molecule, the “Cell viability (% of vehicle control)” value in data set [3] (0.14 μM) was 98.78 % of vehicle control; in data set [3] (0.41 μM), 101.40 % of vehicle control; in data set [3] (1.23 μM), 98.54 % of vehicle control; in data set [3] (3.70 μM) it was 96.47 % of vehicle control; in data set [3] (11.11 μM) it was 96.03 % of vehicle control; in data set [3] (33.33 μM), 93.58 % of vehicle control. Also, the “Cell viability (% of vehicle control)” value in data set [3] (100 μM) was 93.29 % of vehicle control. Also, the “Toxic effect on the cells (cytotoxicity)” value in data set [3] (all test concentrations) is given as “no cytotoxicity was observed; also recorded: no toxic effect on the cells”. The “Duration of common influenza” value in data set [4] is reported as “reduced the duration of common influenza”.
